Data from patent publication US6825308B1, “Copolymers and preparation thereof” (Council of Scientific and Industrial Research, priority 2003, dated 2004).

Biological target: lysozyme (Gallus gallus, UniProt P00698)
Experiment: Relative inhibition of lysozyme, Micrococcus lysodeikticus as substrate (Neuberger and Wilson)
Format: biochemical
Conditions: pH 6.2, 20° C.
Description: This example describes the estimation of inhibition of lysozyme by copolymers.
Micrococcus lysodeikticus is a substrate for the enzyme lysozyme. Relative binding of copolymers was estimated by using a procedure reported by Neuberger and Wilson (1967).
1.5% w/v stock solutions of copolymer was prepared in 0.0066 M phosphate buffer pH 6.2 containing 0.0154 m sodium chloride and 0.008 M sodium azide. One milliliter of stock solution containing different copolymer concentration was mixed with 1.6 ml of 78 μg/ml of Micrococcus lysodeikticus in a 3-ml capacity glass cuvette. The mixture was incubated for 5 minutes at 20° C. To this mixture 0.1 ml of lysozyme (27 μg/ml) was added and mixed thoroughly. The relative absorbance at 450 nm (Δ450) was recorded for 30 seconds. A blank reading without the copolymer was noted and the change in the absorbance per second was calculated. Then relative inhibition was calculated.

Sequence of lysozyme (P00698 19-147): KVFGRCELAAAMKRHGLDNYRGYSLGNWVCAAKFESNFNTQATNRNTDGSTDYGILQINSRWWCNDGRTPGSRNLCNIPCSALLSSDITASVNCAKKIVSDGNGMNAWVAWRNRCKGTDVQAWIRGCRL

Imax (concentration at Imax): 92.5 mM
Imax (maximum relative inhibition of lysozyme): 55.29
SMILES: CC(=O)N[C@H]1C(O)O[C@H](CO)[C@@H](O)[C@@H]1O (some centres unmarked) [NAG, N-Acetyl Glucosamine]
